Assay results from paper PMC8343220, “The selectivity of α‐adrenoceptor agonists for the human α1A, α1B, and α1D‐adrenoceptors” (Pharmacology Research & Perspectives, 2021).
Where two headings read alike, the source gives them in different places.

Experiments:
human α1A‐adrenoceptor [1] = molecular target: T1, human α1A‐adrenoceptor (Homo sapiens, UniProt P35348); experiment: ERK1/2‐phosphorylation (Surefire Alphascreen), CHO‐α1A cells; format: cell-based
T1 construct: expressed in transfected cells; host or cells: CHO-K1
T1 sequence (P35348 1-466): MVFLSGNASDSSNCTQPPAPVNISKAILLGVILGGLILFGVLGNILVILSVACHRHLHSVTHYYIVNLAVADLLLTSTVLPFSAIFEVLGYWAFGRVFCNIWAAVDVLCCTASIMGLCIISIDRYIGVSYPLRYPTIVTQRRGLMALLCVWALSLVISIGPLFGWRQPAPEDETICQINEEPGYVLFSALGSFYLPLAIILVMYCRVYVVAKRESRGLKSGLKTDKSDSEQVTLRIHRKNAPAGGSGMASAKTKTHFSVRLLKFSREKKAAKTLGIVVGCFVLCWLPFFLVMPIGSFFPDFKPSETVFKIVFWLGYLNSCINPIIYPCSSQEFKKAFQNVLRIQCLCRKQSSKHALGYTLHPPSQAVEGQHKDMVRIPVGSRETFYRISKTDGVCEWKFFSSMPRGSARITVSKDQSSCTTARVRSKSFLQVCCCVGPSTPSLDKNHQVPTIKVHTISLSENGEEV

[2] = test system: parental CHO cell line without any transfected receptors; experiment: Intracellular calcium mobilization, parent CHO cells without transfected receptors; format: cell-based, Chinese hamster; settings: for Emax: Cricetulus griseus, CHO, read-out: Intracellular calcium release % ionomycin
human α1A‐adrenoceptor [3] = molecular target: T1, human α1A‐adrenoceptor; experiment: ^3H‐cAMP accumulation, CHO‐α1A cells; format: cell-based; settings: for cAMP accumulation % forskolin: % of 10 µM forskolin response
[4] = test system: parental CHO cell line without any transfected receptors; experiment: Forskolin‐stimulated cAMP accumulation, parent CHO cells without transfected receptors; format: cell-based, Chinese hamster
human α1A‐adrenoceptor [5] = molecular target: T1, human α1A‐adrenoceptor; experiment: ^3H‐cAMP accumulation in the presence of 10 μM forskolin, CHO‐α1A cells; format: cell-based; settings: for cAMP accumulation (in presence of forskolin) Fold increase: fold increase of the forskolin response
human α1B‐adrenoceptor [6] = molecular target: T2, human α1B‐adrenoceptor (Homo sapiens, UniProt P35368); experiment: ^3H‐prazosin whole‐cell radioligand binding, CHO‐α1B cells
T2 construct: expressed in transfected cells; host or cells: CHO-K1
T2 sequence (P35368 1-520): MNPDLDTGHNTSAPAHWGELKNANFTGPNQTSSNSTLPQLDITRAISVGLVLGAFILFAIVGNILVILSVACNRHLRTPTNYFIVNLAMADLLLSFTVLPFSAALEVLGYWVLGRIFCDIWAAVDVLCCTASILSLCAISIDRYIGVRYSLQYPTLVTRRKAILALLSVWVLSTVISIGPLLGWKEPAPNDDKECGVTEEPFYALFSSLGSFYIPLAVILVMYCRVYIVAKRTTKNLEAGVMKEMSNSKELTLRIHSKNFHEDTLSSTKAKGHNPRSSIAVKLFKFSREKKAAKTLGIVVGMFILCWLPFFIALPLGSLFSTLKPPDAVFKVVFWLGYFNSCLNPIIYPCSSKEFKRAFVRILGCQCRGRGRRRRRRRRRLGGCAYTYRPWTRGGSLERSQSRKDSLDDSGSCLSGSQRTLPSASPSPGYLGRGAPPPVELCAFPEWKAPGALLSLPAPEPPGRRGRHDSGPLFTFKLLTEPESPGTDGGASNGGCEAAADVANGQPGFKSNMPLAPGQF

[7] = molecular target: T3, human α1D‐adrenoceptor (full length) (Homo sapiens, UniProt P25100); experiment: ERK1/2‐phosphorylation (Surefire Alphascreen), CHO‐α1D cells; format: cell-based
T3 construct: human α1D‐adrenoceptor (full length) were used; expressed in transfected cells; host or cells: CHO-K1
T3 sequence (P25100 1-572): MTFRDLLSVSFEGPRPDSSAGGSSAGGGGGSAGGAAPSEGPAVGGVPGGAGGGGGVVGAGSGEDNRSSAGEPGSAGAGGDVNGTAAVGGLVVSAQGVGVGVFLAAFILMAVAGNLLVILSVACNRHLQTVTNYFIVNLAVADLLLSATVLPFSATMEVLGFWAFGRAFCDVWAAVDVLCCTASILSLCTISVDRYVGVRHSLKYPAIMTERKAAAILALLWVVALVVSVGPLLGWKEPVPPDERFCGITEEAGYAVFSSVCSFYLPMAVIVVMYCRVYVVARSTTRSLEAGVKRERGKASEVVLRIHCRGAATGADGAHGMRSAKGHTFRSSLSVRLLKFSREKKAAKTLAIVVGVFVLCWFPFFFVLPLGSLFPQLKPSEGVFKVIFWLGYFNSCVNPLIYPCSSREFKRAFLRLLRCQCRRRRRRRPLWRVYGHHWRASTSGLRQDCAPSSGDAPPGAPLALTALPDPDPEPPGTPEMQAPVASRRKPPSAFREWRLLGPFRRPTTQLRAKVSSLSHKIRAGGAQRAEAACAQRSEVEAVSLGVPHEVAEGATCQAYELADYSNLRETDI

[8] = test system: parental CHO cell line without any transfected receptors; experiment: ERK1/2‐phosphorylation, parent CHO cells without transfected receptors; format: cell-based, Chinese hamster
human α1A‐adrenoceptor [9] = molecular target: T1, human α1A‐adrenoceptor; experiment: ^3H‐prazosin whole‐cell radioligand binding, CHO‐α1A cells
human α1A‐adrenoceptor [10] = molecular target: T1, human α1A‐adrenoceptor; experiment: Intracellular free calcium mobilization, CHO‐α1A cells; format: cell-based
[11] = test system: parental CHO cell line without any transfected receptors; experiment: ^3H‐cAMP accumulation, parent CHO cells without transfected receptors; format: cell-based, Chinese hamster
[12] = molecular target: T3, human α1D‐adrenoceptor (full length); experiment: ^3H‐prazosin whole‐cell radioligand binding, CHO‐α1D cells
[13] = molecular target: T3, human α1D‐adrenoceptor (full length); experiment: Intracellular free calcium mobilization, CHO‐α1D cells; format: cell-based
human α1B‐adrenoceptor [14] = molecular target: T2, human α1B‐adrenoceptor; experiment: Intracellular free calcium mobilization, CHO‐α1B cells; format: cell-based
[15] = molecular target: T3, human α1D‐adrenoceptor (full length); experiment: ^3H‐cAMP accumulation in the presence of 10 μM forskolin, CHO‐α1D cells; format: cell-based; settings: CHO‐α1D cells; for cAMP (in presence of forskolin) Log EC50: log values given negative
[16] = molecular target: T3, human α1D‐adrenoceptor (full length); experiment: ^3H‐cAMP accumulation, CHO‐α1D cells; format: cell-based; settings: cAMP accumulation without forskolin
human α1B‐adrenoceptor [17] = molecular target: T2, human α1B‐adrenoceptor; experiment: ERK1/2‐phosphorylation (Surefire Alphascreen), CHO‐α1B cells; format: cell-based
human α1B‐adrenoceptor [18] = molecular target: T2, human α1B‐adrenoceptor; experiment: ^3H‐cAMP accumulation in the presence of 10 μM forskolin, CHO‐α1B cells; format: cell-based
human α1B‐adrenoceptor [19] = molecular target: T2, human α1B‐adrenoceptor; experiment: ^3H‐cAMP accumulation, CHO‐α1B cells; format: cell-based
[20] = ERK1/2‐phosphorylation Log EC50
[21] = Intracellular calcium release Log EC50

Structure (SMILES) | EC50 (human α1A‐adrenoceptor [1]) | ERK1/2‐phosphorylation % PDBu (human α1A‐adrenoceptor [1]) | Emax [2] | EC50 (human α1A‐adrenoceptor [3]) | cAMP accumulation % forskolin (human α1A‐adrenoceptor [3]; CHO‐α1A cells) | cAMP accumulation (in presence of forskolin) % forskolin-stim cAMP [4] | cAMP accumulation (in presence of forskolin) Log EC50 [4] | EC50 (human α1A‐adrenoceptor [5]) | cAMP accumulation (in presence of forskolin) Fold increase (human α1A‐adrenoceptor [5]; CHO‐α1A cells) | ERK1/2-phosphorylation % PDBu [8] | Affinity selectivity ratio α1A vs α1B (human α1A‐adrenoceptor [9]) | Affinity selectivity ratio α1A vs α1D (human α1A‐adrenoceptor [9]) | Kd (human α1A‐adrenoceptor [9]) | EC50 (human α1A‐adrenoceptor [10]) | Intracellular calcium release % ionomycin (human α1A‐adrenoceptor [10]) | Log efficacy ratio KD /EC50 (human α1A‐adrenoceptor [10]) | cAMP accumulation % forskolin [11] | Affinity selectivity ratio α1B vs α1D [12] | Kd [12] | Intracellular calcium release % ionomycin [2] | also measured
CN[C@@H](C)[C@H](O)c1ccccc1 [Ephedrine] | 7.59 µM | 72.7 ± 6.5% | 5.3 ± 1.6% | 117 µM | 7.8 ± 1.3% | No response | No response | 70.8 µM | 1.70 ± 0.10 fold | No response | >11.7 fold | 3.2 fold | 85.1 µM | 3.16 µM | 43.1 ± 1.6% | 1.43 | No response | >3.7 fold | 269 µM | – | IC50 (human α1B‐adrenoceptor [6]): > 1000 µM; ERK1/2‐phosphorylation % PDBu at 100 µM [7]: 3.3 ± 2.1%; ERK1/2-phosphorylation Log EC50 [8]: No response; Intracellular calcium release % Ionomycin at 100 µM [13]: 2.6 ± 1.3%
CC(Cc1ccc(O)cc1)NCC(O)c1cc(O)cc(O)c1 (centres unmarked) [Fenoterol] | – | – | – | – | – | No response | – | – | – | No response | – | – | – | – | – | – | No response | – | – | No response | EC50 (human α1A‐adrenoceptor [1]; [20]): 2.04 µM; EC50 (human α1B‐adrenoceptor [14]; [21]): 0.537 µM; cAMP accumulation Log EC50 (human α1A‐adrenoceptor [3]; CHO‐α1A cells, 5 h): No response; cAMP accumulation (in presence of forskolin) Log EC50 (human α1A‐adrenoceptor [5]; CHO‐α1A cells, 10 μM forskolin): No response; cAMP (in presence of forskolin) Log EC50 [15]: No response; Kd (human α1B‐adrenoceptor [6]; Log KD α1B, ^3H‐prazosin whole cell binding): 123 µM; Kd (human α1B‐adrenoceptor [6]; Log KD, ^3H‐prazosin binding): 123 µM; EC50 [7]: 3.98 µM; Kd (human α1A‐adrenoceptor [9]; Log KD α1A, ^3H‐prazosin whole cell binding): 5.13 µM; EC50 (human α1A‐adrenoceptor [10]; [21]): 0.309 µM; cAMP Log EC50 [16]: No response; Kd ([12]; 3H‐prazosin binding Log KD): 44.7 µM; Kd ([12]; Log KD α1D, ^3H‐prazosin whole cell binding): 44.7 µM; EC50 (human α1B‐adrenoceptor [17]; [20]): 2.75 µM
C=CCc1ccccc1OC(C)C1=NCCN1 (centres unmarked) [Allyphenyline] | 0.00158 µM | 79.3 ± 3.5% | 5.9 ± 1% | 0.0891 µM | 82.4 ± 5.5% | No response | No response | 0.00794 µM | 2.38 ± 0.08 fold | – | 47.9 fold | 8.7 fold | 0.162 µM | 0.00295 µM | 58.6 ± 3.0% | 1.74 | No response | 5.5 fold | 1.41 µM | – | EC50 (human α1B‐adrenoceptor [18]): 0.0513 µM; cAMP accumulation (in presence of forskolin) Fold increase (human α1B‐adrenoceptor [18]; CHO‐α1B cells, fold increase of the forskolin response): 1.87 ± 0.07 fold; EC50 (human α1B‐adrenoceptor [19]): 0.174 µM; cAMP accumulation % forskolin (human α1B‐adrenoceptor [19]; CHO‐α1B cells, % forskolin maximum response): 5.5 ± 0.9%; EC50 (human α1B‐adrenoceptor [14]): 0.0794 µM; Intracellular calcium release % ionomycin (human α1B‐adrenoceptor [14]): 39.9 ± 1.9%; Log efficacy ratio KD /EC50 (human α1B‐adrenoceptor [14]): 1.99; cAMP (in presence of forskolin) Fold increase ([15]; fold increase of the forskolin response): No response; cAMP (in presence of forskolin) Log EC50 [15]: No response; Kd (human α1B‐adrenoceptor [6]): 7.76 µM; EC50 [7]: 6.92 µM; ERK1/2‐phosphorylation % PDBu [7]: 29.1 ± 4.7%; Emax at 100 µM ([8]; Cricetulus griseus, CHO, read-out: ERK1/2-phosphorylation % PDBu at 100μM): 12.7 ± 3.1%; cAMP Log EC50 [16]: No response; EC50 [13]: 0.316 µM; Intracellular calcium release % ionomycin [13]: 12.3 ± 1.4%; Log efficacy ratio KD /EC50 [13]: 0.65; EC50 (human α1B‐adrenoceptor [17]): 0.282 µM; ERK1/2‐phosphorylation % PDBu (human α1B‐adrenoceptor [17]): 65.3 ± 3.0%
CCC1(c2cnc[nH]2)Cc2ccccc2C1 [Atipamezole] | – | 87.1 ± 5.0% | – | – | 14.5 ± 2.6% | No response | No response | – | 2.00 ± 0.10 fold | – | – | – | – | – | 44.5 ± 2.6% | 0.62 | No response | – | – | No response | EC50 (human α1A‐adrenoceptor [1]; CHO‐α1A cells, 2–4 min, ^a bi‐phasic: initial stimulatory part, ^b also active in parent CHO cells, read-out: ERK1/2‐phosphorylation Log EC50 (converted)): 0.1 µM; Intracellular calcium release % Ionomycin at 100 µM (human α1B‐adrenoceptor [14]): 18.1 ± 4.8%; EC50 (human α1A‐adrenoceptor [3]; CHO‐α1A cells, 5 h, read-out: cAMP accumulation Log EC50 (converted)): 1.17 µM; EC50 (human α1A‐adrenoceptor [5]; CHO‐α1A cells, 10 μM forskolin, read-out: cAMP accumulation (in presence of forskolin) Log EC50 (converted)): 0.479 µM; ERK1/2‐phosphorylation % PDBu at 10 µM [7]: 5.3 ± 4.6%; ERK1/2-phosphorylation % PDBu at 10μM [8]: 3.1 ± 1.9%; EC50 (human α1A‐adrenoceptor [10]; CHO‐α1A cells, given as log EC50 (negative), read-out: Intracellular calcium release Log EC50 (converted)): 0.245 µM; Intracellular calcium release % ionomycin [13]: No response; Intracellular calcium release Log EC50 ([13]; CHO‐α1D cells, log values given negative): No response; ERK1/2‐phosphorylation % PDBu (human α1B‐adrenoceptor [17]): No response; ERK1/2‐phosphorylation Log EC50 (human α1B‐adrenoceptor [17]; CHO‐α1B cells, for bi‐phasic responses the initial stimulatory part): No response
